# Reference: PMC5333395, “Assessing histone demethylase inhibitors in cells: lessons learned” (Epigenetics & Chromatin, 2017)
# What was measured:
# Assay in all cases: AlphaScreen in vitro demethylase assay
# Assay type in all cases: biochemical
# KDM4B = target: T1, KDM4B (Homo sapiens, UniProt O94953); conditions: IC50 ± SD (number of replicates)
# T1 sequence (O94953 1-1096): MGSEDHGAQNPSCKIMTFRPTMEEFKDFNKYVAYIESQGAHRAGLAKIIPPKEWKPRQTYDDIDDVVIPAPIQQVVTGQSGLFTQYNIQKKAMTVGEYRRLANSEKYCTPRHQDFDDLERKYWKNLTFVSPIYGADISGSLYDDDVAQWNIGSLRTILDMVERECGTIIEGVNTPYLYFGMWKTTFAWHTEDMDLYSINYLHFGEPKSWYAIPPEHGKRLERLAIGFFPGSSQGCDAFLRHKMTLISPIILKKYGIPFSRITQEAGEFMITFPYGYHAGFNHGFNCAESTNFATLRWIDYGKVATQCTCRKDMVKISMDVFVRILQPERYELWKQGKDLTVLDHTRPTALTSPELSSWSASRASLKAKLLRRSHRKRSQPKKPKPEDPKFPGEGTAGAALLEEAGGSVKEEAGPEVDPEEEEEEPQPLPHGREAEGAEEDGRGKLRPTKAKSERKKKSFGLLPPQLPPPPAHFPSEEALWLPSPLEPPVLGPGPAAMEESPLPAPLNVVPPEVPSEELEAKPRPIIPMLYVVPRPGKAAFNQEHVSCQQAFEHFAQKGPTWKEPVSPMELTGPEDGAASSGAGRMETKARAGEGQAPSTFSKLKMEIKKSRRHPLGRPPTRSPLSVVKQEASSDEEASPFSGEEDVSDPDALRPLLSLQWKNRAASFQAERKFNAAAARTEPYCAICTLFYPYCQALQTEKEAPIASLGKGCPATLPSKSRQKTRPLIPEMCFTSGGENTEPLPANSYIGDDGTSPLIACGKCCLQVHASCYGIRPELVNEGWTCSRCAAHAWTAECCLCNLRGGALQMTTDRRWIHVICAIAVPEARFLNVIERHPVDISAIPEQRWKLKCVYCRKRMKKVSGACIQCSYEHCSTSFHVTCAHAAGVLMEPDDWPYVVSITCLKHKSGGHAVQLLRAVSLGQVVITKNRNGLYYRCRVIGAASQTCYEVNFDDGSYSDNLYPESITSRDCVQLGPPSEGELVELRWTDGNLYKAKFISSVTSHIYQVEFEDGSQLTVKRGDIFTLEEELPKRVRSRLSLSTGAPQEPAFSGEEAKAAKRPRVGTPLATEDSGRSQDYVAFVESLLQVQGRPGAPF
# Protocol: (§1) IC50 values were determined as previously described. The following amendments were made to the protocol for carrying out 2-OG competition assays.
# KDM4C = target: T2, KDM4C (Homo sapiens, UniProt Q9H3R0); conditions: AlphaScreen; IC50 ± SD (number of replicates); read-out: KDM4C IC50, in vitro
# T2 sequence (Q9H3R0 1-1056): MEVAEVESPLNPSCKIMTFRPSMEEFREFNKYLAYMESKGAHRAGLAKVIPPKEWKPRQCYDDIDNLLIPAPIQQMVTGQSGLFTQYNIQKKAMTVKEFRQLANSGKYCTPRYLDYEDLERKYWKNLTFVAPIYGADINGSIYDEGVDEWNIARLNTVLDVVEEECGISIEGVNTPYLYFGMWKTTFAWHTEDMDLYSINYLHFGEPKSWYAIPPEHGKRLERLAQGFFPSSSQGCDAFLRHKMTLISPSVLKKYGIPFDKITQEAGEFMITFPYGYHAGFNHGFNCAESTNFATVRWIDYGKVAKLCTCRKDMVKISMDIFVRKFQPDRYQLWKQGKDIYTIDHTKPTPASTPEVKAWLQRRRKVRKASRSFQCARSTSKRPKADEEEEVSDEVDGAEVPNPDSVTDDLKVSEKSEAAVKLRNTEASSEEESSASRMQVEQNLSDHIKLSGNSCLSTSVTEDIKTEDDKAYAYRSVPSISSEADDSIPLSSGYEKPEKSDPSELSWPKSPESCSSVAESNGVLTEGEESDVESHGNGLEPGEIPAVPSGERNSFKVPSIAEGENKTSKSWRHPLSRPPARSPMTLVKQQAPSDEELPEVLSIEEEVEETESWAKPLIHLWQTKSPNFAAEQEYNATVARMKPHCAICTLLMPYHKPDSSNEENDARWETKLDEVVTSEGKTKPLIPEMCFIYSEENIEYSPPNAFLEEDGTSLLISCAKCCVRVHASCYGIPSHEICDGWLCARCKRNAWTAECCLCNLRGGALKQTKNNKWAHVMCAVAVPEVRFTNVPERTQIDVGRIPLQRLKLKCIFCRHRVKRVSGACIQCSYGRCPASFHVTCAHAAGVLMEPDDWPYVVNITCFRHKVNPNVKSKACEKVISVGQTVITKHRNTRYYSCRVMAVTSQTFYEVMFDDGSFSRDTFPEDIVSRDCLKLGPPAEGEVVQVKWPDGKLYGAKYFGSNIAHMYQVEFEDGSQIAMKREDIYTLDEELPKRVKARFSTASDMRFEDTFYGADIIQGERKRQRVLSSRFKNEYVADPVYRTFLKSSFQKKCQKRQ
# Protocol: as §1
# KDM6B = KDM6B (Homo sapiens, UniProt O15054); conditions: AlphaScreen; IC50 ± SD (number of replicates); read-out: KDM6B IC50, in vitro
# KDM6B, sequence (O15054 whole entry): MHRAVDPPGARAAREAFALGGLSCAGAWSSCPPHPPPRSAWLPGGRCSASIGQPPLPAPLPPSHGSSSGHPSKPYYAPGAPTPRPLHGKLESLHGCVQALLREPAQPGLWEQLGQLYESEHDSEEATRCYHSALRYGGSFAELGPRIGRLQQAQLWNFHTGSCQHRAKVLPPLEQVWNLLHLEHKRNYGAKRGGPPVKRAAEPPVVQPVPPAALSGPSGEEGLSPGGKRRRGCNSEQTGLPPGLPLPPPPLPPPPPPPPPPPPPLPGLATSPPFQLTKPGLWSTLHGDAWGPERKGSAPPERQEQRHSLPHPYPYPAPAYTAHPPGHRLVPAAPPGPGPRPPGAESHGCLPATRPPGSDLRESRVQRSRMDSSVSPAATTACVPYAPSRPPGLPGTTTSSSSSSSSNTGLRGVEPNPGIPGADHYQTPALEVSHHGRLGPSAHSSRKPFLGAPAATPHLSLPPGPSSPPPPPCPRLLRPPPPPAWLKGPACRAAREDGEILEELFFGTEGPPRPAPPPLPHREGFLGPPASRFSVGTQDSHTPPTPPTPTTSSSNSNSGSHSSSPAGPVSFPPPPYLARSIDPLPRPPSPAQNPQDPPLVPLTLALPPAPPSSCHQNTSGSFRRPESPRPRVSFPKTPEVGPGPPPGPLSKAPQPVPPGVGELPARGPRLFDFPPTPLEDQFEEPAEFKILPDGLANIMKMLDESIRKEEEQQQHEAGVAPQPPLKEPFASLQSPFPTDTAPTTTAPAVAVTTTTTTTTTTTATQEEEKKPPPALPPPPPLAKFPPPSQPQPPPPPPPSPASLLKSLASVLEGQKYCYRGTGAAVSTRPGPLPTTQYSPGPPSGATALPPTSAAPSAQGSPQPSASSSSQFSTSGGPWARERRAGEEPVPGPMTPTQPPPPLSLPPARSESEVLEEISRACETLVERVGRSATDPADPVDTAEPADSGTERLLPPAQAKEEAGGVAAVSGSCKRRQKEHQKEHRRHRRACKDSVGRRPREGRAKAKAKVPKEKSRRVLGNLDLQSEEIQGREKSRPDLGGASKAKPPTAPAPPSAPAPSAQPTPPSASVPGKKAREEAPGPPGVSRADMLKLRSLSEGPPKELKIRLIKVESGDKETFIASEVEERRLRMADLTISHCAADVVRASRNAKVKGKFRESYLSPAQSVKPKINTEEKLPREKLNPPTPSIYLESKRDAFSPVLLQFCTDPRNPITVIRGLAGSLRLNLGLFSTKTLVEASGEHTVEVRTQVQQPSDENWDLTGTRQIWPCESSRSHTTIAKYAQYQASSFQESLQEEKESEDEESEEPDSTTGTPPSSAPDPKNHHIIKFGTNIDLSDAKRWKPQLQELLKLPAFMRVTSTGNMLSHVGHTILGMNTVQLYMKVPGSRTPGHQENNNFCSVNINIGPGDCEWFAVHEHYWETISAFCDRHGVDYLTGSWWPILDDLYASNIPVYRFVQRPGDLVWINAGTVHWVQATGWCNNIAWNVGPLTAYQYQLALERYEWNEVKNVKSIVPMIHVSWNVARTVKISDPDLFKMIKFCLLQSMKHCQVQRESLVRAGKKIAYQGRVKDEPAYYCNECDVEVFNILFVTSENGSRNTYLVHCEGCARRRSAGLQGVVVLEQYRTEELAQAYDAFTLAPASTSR
# Protocol: as §1
Molecule,IC50 (KDM4B) [nM],IC50 (KDM4C) [nM],IC50 (KDM6B) [nM]
CPI-455,44000,11000 ± 2300,> 100000
CCOC(=O)c1ccnc(CNCC(=O)N(CC)CCN(C)C)c1 [KDOAM-21],2500,2800 ± 1300,11000 ± 4600
"O=c1[nH]cnc2c(-n3cc(CCN4CCC(c5cccc(Cl)c5)CC4)cn3)cccc12 [CCT366293, 8-(4-(2-(4-(3-Chlorophenyl)piperidin-1-yl)ethyl)-1H-pyrazol-1-yl)quinazolin-4(3H)-one]",> 10000,–,–
CCN(CCN(C)C)C(=O)CNCc1cc(C(=O)O)ccn1 [KDOAM-20],99,190 ± 81,1400 ± 450
